Measured values as given in US20260125356A1, “TREATMENT OF LEISHMANIASIS” (THE UNIVERSITY OF DURHAM, priority 2022, published 2026).
Values after ≈ are worked out from the molar mass of the structure shown. Where two headings read alike, the source gives them in different places.

Assays:
[1] = system: wild-type E. coli (BW25113); assay: Antibacterial MIC/growth assay, wild-type E. coli; format: cell-based; details: 7.8 to 500 μM, 16 hours at 37° C.
Description: (§1) DMSO was used as a solvent control at a maximum final concentration of 10% (a greater percentage than would be achieved using the compounds at the concentrations in question). Plates were incubated at 37° C. with shaking for 16 hours before measuring absorbance at 600 nm. These values were then used to calculate percentage growth at each dilution of compound in comparison to growth in the absence of compound. The following day, the contents of each well were resuspended using a multichannel pipette, and 5 μl from each well was then applied to LB agar plates. These were incubated at 30° C. in a stationary incubator for 16 hours before imaging.

[2] = system: L. donovani promastigotes; assay: L. donovani promastigote dose response assay (resazurin); format: cell-based; details: Leishmania donovani, read-out: EC50 (L. don)/μM
Kinetic solubility = details: kinetic from dmso stock
Description: All chemicals and solvents were sourced from commercial suppliers. Buffers were made up using purified water from a MilliQ® water purification system. Biorelevant buffers (FESSIF, FASSIF and FASSGF) were purchased from Biorelevant and made up according to manufacturer's instructions. 15% FBS (heat inactivated, South American origin, ThermoFisher scientific) in PBS (Fisher Scientific) was filter sterilised (0.22 μm Fisherbrand™ Sterile PES Syringe Filter, Fisher Scientific) before use. Sodium taurocholate was purchased from Merck.
λmax was determined for each compound from the UV-Vis absorption spectrum of a 200 LIM compound solution in buffer of interest using a Varian Cary® 100 UV-Vis Spectrophotometer. A calibration curve of λmax VS concentration was obtained by serial dilution of compound from 200 μM in the buffer of interest, correcting for background buffer absorption. For each sample, a DMSO solution of compound was incubated in buffer of interest (<5% DMSO) for 2 hrs at RT. The solution was filtered (0.22 μm Fisherbrand™ Sterile PES Syringe Filter, Fisher Scientific) or centrifuged (14,500 rpm, 10 min) to remove undissolved debris and the supernatant was removed and diluted as required. The corrected UV absorption of the supernatant at Amax Was measured using a Varian Cary® 100 UV-Vis Spectrophotometer and compared to the calibration curve to determine compound solubility.

[3] = system: T. brucei bloodstream trypomastigotes; assay: T. brucei bloodstream trypomastigote dose response assay; format: cell-based; details: Trypanosoma brucei, read-out: EC50 (T. brucei)/μM
L. amazonensis-GFP = assay: In vivo intralesional treatment of L. amazonensis-GFP (mouse ear); details: 0.4 mg in 10 μL PBS, once a week for five weeks
Description: FIG. 12 evaluation of the parasitic load of intralesional treatment of L. amazonensis-GFP (mouse ear) after treatment with PBS, glucantime, compound 53 (VJL), clemastine fumarate (CF) or clemastine fumarate in a polymeric nanoparticle (NP-CF);
Mice were infected with L. amazonensis and were then treated intralesionally (IL) with five doses of 10 μL PBS only (control) or 10 μL of PBS containing 0.4 mg of glucantime, compound 53 (VJL), clemastine fumarate (CF) or clemastine fumarate in a polymeric nanoparticle (NP-CF). The mice were treated once a week for five weeks.

[4] = Cytotoxicity against macrophages (resazurin); format: cell-based; details: mouse, bone marrow-derived macrophages (BMDM), read-out: CC50 (macrophage)
Description: Mouse bone marrow-derived macrophages (BMDM) were plated in 96 well-plate at 1×10^5/well with medium RPMI+10% HIFCS. After 24 h, compound 53 and Pentostam were added at the indicated concentrations, and cells cultured for further 48 h with medium RPMI+5% HIFCS. […] Pentostam CC50 was from curve regression extrapolation. Means±SD (n=5);
The selectivity index (SI) was calculated by dividing the half maximal cytotoxic concentration (CC50) by the half maximal effective concentration (EC50). CC50 was extrapolated for pentostam.

visceral leishmaniasis = assay: In vivo efficacy against experimental visceral leishmaniasis; details: single dose 10 mg/kg, BALB/c mice
Description: FIG. 9 evaluation of efficacy against visceral leishmaniasis in BALB/c mice in (A) the liver and (B) the spleen through Leishman donovani units (LDU) (n=4);
FIG. 10 evaluation of efficacy against visceral leishmaniasis in BALB/c mice in bone marrow (n=4);
FIG. 11 evaluation of efficacy against visceral leishmaniasis in BALB/c mice in (A) the liver and (B) the spleen through Limiting Dilution Assay (LDA) (n=4);
Mice were infected with 2×10^7 promastigotes and kept for 2 months. After 2 months mice were treated with a single dose of phosphate-buffered saline (PBS), an empty liposome formulation (E.Lip), 10 mg/kg of body weight of Drug 3R, 10 mg/kg of body weight of compound 53 (identified in the Figures as drug 10), a liposome composition comprising 10 mg/kg of body weight of Drug 3R (Lip Drug 3R) or a liposome composition comprising 10 mg/kg of body weight of compound 53 (Lip Drug 10). […] The mice were then kept for one month and then sacrificed. Infection in liver and spleen was determined through LDU and LDA (FIGS. 9 and 11), infection in bone marrow was determined by counting amastigotes/1000 cells (FIG. 10).
Liposomal compositions were prepared by incorporation of an active compound into the lipid bilayer of SA-bearing choline liposome (lipid ratio, 7:2). […]

T. cruzi epimastigotes = assay: T. cruzi epimastigote dose response assay; format: cell-based; details: Trypanosoma cruzi, read-out: EC50 (T. cruzi)/μM
S. aureus (FDA209P) = assay: Antibacterial MIC/growth assay, S. aureus; format: cell-based; details: 16 hours at 37° C., absorbance 600 nm
Description: as §1

ΔrfaC mutant E. coli = assay: Antibacterial MIC/growth assay, ΔrfaC mutant E. coli; format: cell-based; details: 7.8 to 500 μM, 16 hours at 37° C.
Description: as §1

[5] = system: L. amazonensis intracellular amastigotes; assay: Killing of intracellular amastigotes in infected peritoneal macrophages; format: cell-based; details: Leishmania amazonensis, Peritoneal macrophage, treated 48 h, read-out: EC50 (amastigote)
Description: Peritoneal macrophages were plated at 2×10^5/well in 24 well-plate onto circular glass coverslips with medium RPMI+10% HIFCS. After 24 h, macrophages were infected with L. amazonensis (1:10) and cultured at 37″C for 4 h and washed to remove non internalized amastigotes. At 24 h post infection, cells were treated with serial dilutions of compound 53 or Pentostam for 48 h at 37° C. in medium RPMI+5% HIFCS. Afterwards, cells were stained with Rapid Panoptic and the number of intracellular amastigotes in 100 macrophages was counted. EC50 values were calculated by non-linear regression. Means±SD (n=2);
The ability of compound 53 to kill intracellular amastigotes for cells infected with L. amazonensis was assessed and the cytotoxicity of the compound was investigated. The results are shown in FIGS. 6 to 8 and Table 8 below.

[6] = system: L. amazonensis promastigotes; assay: L. amazonensis promastigote dose response assay (alamarBlue/resazurin); format: cell-based; details: Leishmania amazonensis, 48 h, 44 hrs + 4 hrs alamarBlue/resazurin, 26° C., read-out: EC50 (L. amaz)/μM
L. major promastigotes = assay: L. major promastigote dose response assay (alamarBlue/resazurin); format: cell-based; details: Leishmania major, 48 h, 44 hrs + 4 hrs alamarBlue/resazurin, 26° C.
Description: Using a standard alamarBlue™ assay, activity and selectivity were assessed using L. major promastigotes and HepG2 cells, respectively.
All parasite and human cell cultures were grown and manipulated following biosafety level 2 instructions under sterile conditions. L. major FV1, L. amazonensis (MHOM/Br/75/JOSEFA), L. donovani BOB (derived from MHOM/SD/62/1S-CL2D), T. brucei (90-13, 427 strain) and T. cruzi (Dm28c) were used throughout.
All steps were carried out under sterile conditions. Frozen stocks of the relevant Leishmania promastigote species were thawed rapidly and added to Schneider's media. Promastigotes were grown at 26° C. in Nunc EasYFlask 25 cm^2 Nunclon Delta Surface (ThermoScientific) and frozen stocks were prepared on low passage cultures (p2-4) by pelleting the cells by centrifugation and resuspending in Schneider's media with 10% DMSO. The cultures were aliquoted into cryovials (Starlab) and cooled slowly to −150° C. for long term storage.
All steps were carried out under sterile conditions. […] Cycloheximide or amphotericin B were used as positive controls and 2% DMSO was used as a negative control. alamarBlue® (ThermoFisher scientific) or resazurin solution was added to each well and incubated for a further 4 hrs at 26° C. Cell-viability was determined using a BioTek™ FLx800 microplate reader with Gen5® 1.08 data analysis software (BioTek) by monitoring fluorescence emission (λex 560/λem 590 nm). Dose response curves were fitted using sigmoidal regression analysis (GraphPad Prism 8 software) and used to calculate EC50 values.

[7] = FASSGF, fassgf or other biorelevant

Compound: CNC(=O)c1ccc(OCCCN2CCOCC2)cc1NC(=O)c1ccc([N+](=O)[O-])s1 [Compound 53, N-[2-(methylcarbamoyl)-5-[3″-(morpholin-4′″-yl)propoxy]phenyl]-5′-nitrothiophene-2′-carboxamide]
- inhibition of growth of wild-type E. coli [1]: little effect
- EC50 ([2]; 72 h): 0.044 µM
- solubility at 2 h (Kinetic solubility; [7]): > 8000 µM
- solubility at 2 h (Kinetic solubility; FASSIF): 359 µM (≈ 161 µg/mL)
- solubility at 2 h (Kinetic solubility; FESSIF): 4700 µM (≈ 2110 µg/mL)
- solubility at 2 h (Kinetic solubility; PBS, aqueous buffer): 29 µM (≈ 13 µg/mL)
- EC50 ([3]; 48 h): 0.29 ± 0.1 µM
- parasitic load after intralesional treatment (L. amazonensis-GFP): effective treatment
- CC50 at 48 h [4]: 16 ± 1 µg/mL (≈ 35.7 µM)
- antileishmanial effect in vivo (liver, spleen, bone marrow infection) (visceral leishmaniasis; compound alone): reasonable antileishmanial effect
- antileishmanial effect in vivo (liver, spleen, bone marrow infection), liposomal formulation (visceral leishmaniasis; delivered (iv) in a liposomal formulation): very effective clearance
- EC50 (T. cruzi epimastigotes; 72 h): 3.8 ± 0.5 µM
- inhibition of growth of S. aureus (S. aureus (FDA209P)): effective at inhibiting the bacteria at low concentrations
- inhibition of growth of ΔrfaC mutant E. coli (ΔrfaC mutant E. coli): some reasonable activity
- EC50 [5]: 0.6 ± 0.2 µg/mL (≈ 1.34 µM)

Compound: CNC(=O)c1ccc(OCCN2CCOCC2)cc1NC(=O)c1ccc([N+](=O)[O-])s1 [Compound 52, N-[2-(methylcarbamoyl)-5-[2″-(morpholin-4″-yl)ethoxy]phenyl]-5′-nitrothiophene-2′-carboxamide]
- EC50 [6]: 0.27 µM
- EC50 ([2]; promastigotes, 72 hrs at 26° C., resazurin): 0.134 µM
- EC50 (L. major promastigotes): 0.44 µM
- solubility at 2 h (Kinetic solubility; [7]): > 8000 µM
- solubility at 2 h (Kinetic solubility; FASSIF): 148 µM (≈ 64.3 µg/mL)
- solubility at 2 h (Kinetic solubility; FESSIF): 1870 µM (≈ 812 µg/mL)
- solubility at 2 h (Kinetic solubility; PBS, aqueous buffer): 19.3 µM (≈ 8.39 µg/mL)
- EC50 ([3]; bloodstream trypomastigotes, 48 hrs, CellTiter Blue): 0.78 ± 0.4 µM
- EC50 (T. cruzi epimastigotes; epimastigotes, 72 hours at 28° C., counted): 13 ± 1 µM
